Reference: patent US11477981B2, “Ice nucleation formulations for cryopreservation and stabilization of biologics” (The General Hospital Corporation, priority 2016, dated 2022)

What was measured:
[1] = Ice nucleation kinetics of picoliter-sized drops of D2O and H2O mixtures (droplet technology); format: physicochemical
Excerpt: FIG. 7. Probability distribution of ice nucleation temperature using nanodroplet technology, wherein condition 1 is pure heavy water containing 0.1 g/L SNOMAX, condition 2 is pure water containing 0.1 g/L SNOMAX, condition 3 is pure heavy water, and condition 4 is pure water.
This disclosure has also systematically investigated the ice nucleation kinetics of picoliter-sized drops of heavy water (e.g., D2O or T2O) and light water (H2O) mixtures with freeze-dried P. syringae. […] The disclosure further investigated the effects of commonly used cryoprotectants such as ethylene glycol, propylene glycol and trehalose on the freezing characteristics of D2O and H2O mixtures. […] Furthermore, several cryoprotectants are found to depress the freezing phenomenon. Both the homogeneous and heterogeneous freezing temperatures of these aqueous solutions depend on the water activity and are independent of the nature of solute.
A self-nucleating and preservation formulation comprising heavy water and ice nucleating agents was developed with broad applications in the field of cryopreservation. […]

animals and animal cells = conditions: at normal body temperatures; cited from earlier work
[2] = background statement; cited from earlier work

Row | Molecule | shift of the ice nucleation kinetics profile per 25% (v/v) increase of D2O concentration ([1]; D2O+H2O mixtures containing 1 mg/ml SNOMAX) | median nucleation temperature ([1]; pure D2O, no ice nucleating agent, droplet technology) [°C] | concentration that can be toxic (animals and animal cells) | temperature at which water freezes [2] [°C]
1 | [2H]O[2H] [D2O] | shifts by about one degree | −32.1 | more than 20% | 
2 | ice nucleation active (INA) protein: ice nucleation active protein InaZ of Pseudomonas syringae (UniProt P06620-1; SEQ ID NO: 1) (protein, listed as Pseudomonas syringae) MNLDKALVLRTCANNMADHCGLIWPASGTVESRYWQSTRRHENGLVGLLWGAGTSAFLSVHADARWIVCEVAVADIISLEEPGMVKFPRAEVVHVGDRISASHFISARQADPASTSTSTLTPMPTAIPTPMPAVASVTLPVAEQARHEVFDVASVSAAAAPVNTLPVTTPQNVQTATYGSTLSGDNHSRLIAGYGSNETAGNHSDLIAGYGSTGTAGSDSWLVAGYGSTQTAGGDSALTAGYGSTQTAREGSNLTAGYGSTGTAGSDSSLIAGYGSTQTSGGDSSLTAGYGSTQTAQEGSNLTAGYGSTGTAGSDSSLIAGYGSTQTSGGDSSLTAGYGSTQTAQEGSNLTAGYGSTGTAGVDSSLIAGYGSTQTSGSDSALTAGYGSTQTAQEGSNLTAGYGSTGTAGSDSSLIAGYGSTQTSGSDSSLTAGYGSTQTAQEGSILTAGYGSTGTAGVDSSLIAGYGSTQTSGSDSALTAGYGSTQTAQEGSNLTAGYGSTGTAGADSSLIAGYGSTQTSGSESSLTAGYGSTQTAREGSTLTAGYGSTGTAGADSSLIAGYGSTQTSGSESSLTAGYGSTQTAQQGSVLTSGYGSTQTAGAASNLTTGYGSTGTAGHESFIIAGYGSTQTAGHKSILTAGYGSTQTARDGSDLIAGYGSTGTAGSGSSLIAGYGSTQTASYRSMLTAGYGSTQTAREHSDLVTGYGSTSTAGSNSSLIAGYGSTQTAGFKSILTAGYGSTQTAQERTSLVAGYGSTSTAGYSSSLIAGYGSTQTAGYESTLTAGYGSTQTAQENSSLTTGYGSTSTAGYSSSLIAGYGSTQTAGYESTLTAGYGSTQTAQERSDLVTGYGSTSTAGYASSLIAGYGSTQTAGYESTLTAGYGSTQTAQENSSLTTGYGSTSTAGFASSLISGYGSTQTAGYKSTLTAGYGSTQTAEYGSSLTAGYGSTATAGQDSSLIAGYGSSLTSGIRSFLTAGYGSTLIAGLRSVLIAGYGSSLTSGVRSTLTAGYGSNQIASYGSSLIAGHESIQVAGNKSMLIAGKGSSQTAGFRSTLIAGAGSVQLAGDRSRLIAGADSNQTAGDRSKLLAGNNSYLTAGDRSKLTGGHDCTLMAGDQSRLTAGKNSVLTAGARSKLIGSEGSTLSAGEDSILIFRLWDGKRYRQLVARTGENGVEADIPYYVNEDDDIVDKPDEDDDWIEVK |  |  |  | −4 to −2
